Experiments:
IgE = test: In vivo inhibition of IgE production in TNP-KLH immunized mice; set-up: species or system BDF1 mice; conditions: 100 mg/kg/day subcutaneously, twice a day for 10 days, N=10
Description: (§1) TNP-KLH (trinitrophenyl-keyhole-lymphet-hemocyanin) was prepared by the method as described in J. Immunol., 97:421-430, 1966 from KLH and trinitrobenzene sulfonic acid. A […] of TNP-KLH suspended in 0.2 ml of saline and 1 mg of aluminum hydroxide gel were injected into the peritoneal cavity of BDF1 mice (8 weeks old) for immunization. From the day of immunization onward, the compound of this invention listed in Table 5 was given subcutaneously to the same animal twice a day for 10 days (100 mg/kg/day, dissolved in 0.5% Tween 80 in saline, and N=10). To the control group, 0.5% Tween 80 in saline was given at the same time schedule (N=10). Ten days after immunization, blood was extracted from the heart, and the concentrations of IgE, IgG1 and IgM antibodies were determined by ELISA (Immunol. Lett., 23:251-256, 1990, and Eur. J. Immunol., 20:2499-2503, 1990). Inhibition (%) of the antibody production with respect to the control was calculated.

human basophils = test: Inhibition of histamine release from human basophils; assay type: cell-based; set-up: dose or concentration left out as unconfirmed
Description: To human heparinized peripheral blood was added 1/10 volume of 6% Dextran 500 in saline, and the mixture was allowed to stand at room temperature for 1 hour, to isolate a plasma layer containing leukocytes. The leukocytes were separated by centrifugation, washed with PIPE-A (119 mM NaCl, 5 mM KCl, 25 mM PIPES, 40 mM NaOH, 5.6 mM glucose, and 0.03% human serum albumin), and suspended in PIPES-ACM (PIPES A, 1 mM CaCl2 and 0.4 mM MgCl2) to give a cell suspension of a density of 4×10^6 cells /ml. To this cell suspension was added the compound of this invention listed in Table 7 as a test drug (0.1 M solution of the compound in DMSO was diluted with PIPES-ACM to give a […]), or the cell suspension was left untouched. After 30 second, calcium ionophore A23187 ([…]) was added. The reaction was allowed to proceed at 37 for 45 minutes. The resulting mixture was centrifuged to isolate a supernatant. Histamine release in the supernatant was determined by the fluorescent method. Inhibitory effect (%) of a given compound of this invention on histamine release was calculated relative to the histamine release when the compound was not coexistent(refer to Allergy, 37:313-321, 1988).

[1] = test system: leukotrien B4 (LTB4) production; test: Inhibition of leukotrien B4 (LTB4) production in RBL-1 basophils; assay type: cell-based; conditions: Rattus norvegicus; RBL-1 cells, calcium ionophore A23187
Description: The basophils from rats of RBL-1 line (Dainippon Pharmaceutical Co.) cultured on DMEM (Dulbecco's modified Eagle medium) containing 10% FCS suspended in 10 mM HEPES-NaOH buffer (pH 7.4), 90 mM NaCl, 3.7 mM KCl, 0.9 mM CaCl2, 5.6mM glucose, and the compound of this invention listed in Table 8 as a test drug, to give a suspension of a density of 2×10^6 cells/ml. The suspension was allowed to stand at 37 for 5 minutes, and calcium ionophores A23187 were added thereto in such a manner that the concentration of […] was obtained in the end. The reaction was allowed to proceed at 37 for 10 minutes, and the supernatant was sampled for the ELISA assay (Cayman Chemical, Catalog No. 520111, and J. Immunol., 119:618-622, 1977) of leukotrien B4 (LTB4). IC50 of a given compound of this invention for inhibition of leukotrien production was calculated relative to the production of LTB4 when the compound was not coexistent.

IgM = test: In vivo inhibition of IgM production in TNP-KLH immunized mice; set-up: species or system BDF1 mice; conditions: 100 mg/kg/day subcutaneously, twice a day for 10 days, N=10
Description: as §1

IgG1 = test: In vivo inhibition of IgG1 production in TNP-KLH immunized mice; set-up: species or system BDF1 mice; conditions: 100 mg/kg/day subcutaneously, twice a day for 10 days, N=10
Description: as §1

IC50 [1]	Structure (SMILES)	Inhibition of antibody production (%) IgE (IgE)	Inhibition of histamine release (%) (human basophils)	Inhibition of antibody production (%) IgM (IgM)	Inhibition of antibody production (%) IgG1 (IgG1)
600 nM	O=C(Cc1ccc(Oc2ccc3ccccc3c2)cc1)Nc1ccccc1C(=O)O [Compound No. 1126, 2-(4-(2-naphtyloxy)phenylacetamide)benzoic acid]	78.9%	55.8%	70.2%	46.8%
210 nM	O=C(Nc1ccccc1C(=O)O)c1ccc(Oc2ccc3ccccc3c2)cc1 [Compound No. 1104, 2-(4-(2-naphtyloxy)benzamide)benzoic Acid]	60.4%	20.4%	56.1%	24.4%

Source: patent US5945450A, “Naphthalene derivative” (Teijin Limited, priority 1994, dated 1999)
